In ChEMBL document CHEMBL5131424, “Synthesis and evaluation of antibacterial and trypanocidal activity of derivatives of monensin A” (Bioorg Med Chem Lett, 2022):
Converted amounts (≈) assume the structure as drawn.

Key:
Staphylococcus aureus [1] = experiment: Antibacterial activity against Staphylococcus aureus NCTC 4163; format: functional
Staphylococcus aureus [2] = experiment: Antibacterial activity against Staphylococcus aureus ATCC 25923; format: functional
Staphylococcus aureus [3] = experiment: Antibacterial activity against Staphylococcus aureus ATCC 6538; format: functional
Staphylococcus aureus [4] = experiment: Antibacterial activity against Staphylococcus aureus ATCC 29213; format: functional
[5] = tested on: Staphylococcus epidermidis; experiment: Antibacterial activity against Staphylococcus epidermidis ATCC 12228; format: functional
[6] = tested on: Staphylococcus epidermidis; experiment: Antibacterial activity against Staphylococcus epidermidis ATCC 35984; format: functional
Escherichia coli [7] = experiment: Antibacterial activity against Escherichia coli NCTC 10538; format: functional
Escherichia coli [8] = experiment: Antibacterial activity against Escherichia coli ATCC 25922; format: functional
Pseudomonas aeruginosa [9] = experiment: Antibacterial activity against Pseudomonas aeruginosa ATCC 15442; format: functional
Pseudomonas aeruginosa [10] = experiment: Antibacterial activity against Pseudomonas aeruginosa […]; format: functional
[11] = tested on: Staphylococcus epidermidis; experiment: Antibacterial activity against Staphylococcus epidermidis 825/19; format: functional
[12] = tested on: Staphylococcus epidermidis; experiment: Antibacterial activity against Staphylococcus epidermidis 829/19; format: functional
[13] = tested on: Staphylococcus epidermidis; experiment: Antibacterial activity against Staphylococcus epidermidis 830/19; format: functional
[14] = tested on: Staphylococcus epidermidis; experiment: Antibacterial activity against Staphylococcus epidermidis 834/19; format: functional
[15] = tested on: Staphylococcus epidermidis; experiment: Antibacterial activity against Staphylococcus epidermidis 840/19; format: functional
[16] = tested on: Staphylococcus epidermidis; experiment: Antibacterial activity against Staphylococcus epidermidis 845/19; format: functional
[17] = tested on: Staphylococcus epidermidis; experiment: Antibacterial activity against Staphylococcus epidermidis 848/19; format: functional
[18] = tested on: Staphylococcus epidermidis; experiment: Antibacterial activity against Staphylococcus epidermidis 851/19; format: functional
Trypanosoma brucei = experiment: Antitrypanosomal activity against bloodstream form of Trypanosoma brucei clone 427-221a measured after 24 hrs by resazurin dye based assay; format: functional
[19] = (§1) Cytotoxicity against human HL-60 cells assessed as reduction in cell viability measured after 24 hrs by resazurin dye based assay; format: toxicity; conditions: HL-60 cells
HL-60 = experiment: as §1; format: toxicity; conditions: hl-60, 24 h
[20] = Selectivity ratio of MIC for cytotoxicity against human HL-60 cells to MIC for antitrypanosomal activity against bloodstream form of Trypanosoma brucei clone 427-221a; format: toxicity, cell-based
[21] = Selectivity ratio of GI50 for cytotoxicity against human HL-60 cells to GI50 for antitrypanosomal activity against bloodstream form of Trypanosoma brucei clone 427-221a; format: toxicity, cell-based; conditions: read-out: RatioGI50
[22] = tested on: Staphylococcus epidermidis; experiment: Potency index, ratio of ciprofloxacin MIC to test compound MIC for antibacterial activity against Staphylococcus epidermidis 825/19; format: functional
[23] = tested on: Staphylococcus epidermidis; experiment: Potency index, ratio of ciprofloxacin MIC to test compound MIC for antibacterial activity against Staphylococcus epidermidis 830/19; format: functional
[24] = tested on: Staphylococcus epidermidis; experiment: Potency index, ratio of ciprofloxacin MIC to test compound MIC for antibacterial activity against Staphylococcus epidermidis 845/19; format: functional

CO[C@H]([C@H](C)[C@H]1O[C@@]2(CC[C@@](C)([C@H]3CC[C@@](CO)([C@@H]4O[C@@H]([C@H]5O[C@@](O)(COC(C)=O)[C@H](C)C[C@@H]5C)C[C@@H]4C)O3)O2)C[C@H](O)[C@H]1C)[C@H](C)C(=O)O
MIC (Staphylococcus aureus [1]): 2 µg/mL (≈ 2.8 µM)
MIC (Staphylococcus aureus [2]): 1 µg/mL (≈ 1.4 µM)
MIC (Staphylococcus aureus [3]): 2 µg/mL (≈ 2.8 µM)
MIC (Staphylococcus aureus [4]): 2 µg/mL (≈ 2.8 µM)
MIC [5]: 1 µg/mL (≈ 1.4 µM)
MIC [6]: 2 µg/mL (≈ 2.8 µM)
MIC (Escherichia coli [7]): > 256 µg/mL
MIC (Escherichia coli [8]): > 256 µg/mL
MIC (Pseudomonas aeruginosa [9]): > 256 µg/mL
MIC (Pseudomonas aeruginosa [10]): > 256 µg/mL
MIC [11]: 0.25 µg/mL (≈ 0.35 µM)
MIC [12]: 1 µg/mL (≈ 1.4 µM)
MIC [13]: 1 µg/mL (≈ 1.4 µM)
MIC [14]: 1 µg/mL (≈ 1.4 µM)
MIC [15]: 2 µg/mL (≈ 2.8 µM)
MIC [16]: 2 µg/mL (≈ 2.8 µM)
MIC [17]: 1 µg/mL (≈ 1.4 µM)
MIC [18]: 2 µg/mL (≈ 2.8 µM)
GI50 (Trypanosoma brucei): 0.29 µM
MIC (Trypanosoma brucei): 1 µM (≈ 0.715 µg/mL)
GI50 at 24 h [19]: 5.51 µM
MIC (HL-60): 10 µM (≈ 7.15 µg/mL)
selectivity ratio [20]: 10
selectivity ratio [21]: 19

CO[C@H]([C@H](C)[C@H]1O[C@@]2(CC[C@@](C)([C@H]3CC[C@@](CO)([C@@H]4O[C@@H]([C@H]5O[C@@](O)(COC(=O)NC(=O)CCl)[C@H](C)C[C@@H]5C)C[C@@H]4C)O3)O2)C[C@H](O)[C@H]1C)[C@H](C)C(=O)O
MIC (Staphylococcus aureus [1]): 2 µg/mL (≈ 2.52 µM)
MIC (Staphylococcus aureus [2]): 1 µg/mL (≈ 1.26 µM)
MIC (Staphylococcus aureus [3]): 2 µg/mL (≈ 2.52 µM)
MIC (Staphylococcus aureus [4]): 2 µg/mL (≈ 2.52 µM)
MIC [5]: 2 µg/mL (≈ 2.52 µM)
MIC [6]: 2 µg/mL (≈ 2.52 µM)
MIC (Escherichia coli [7]): > 256 µg/mL
MIC (Escherichia coli [8]): > 256 µg/mL
MIC (Pseudomonas aeruginosa [9]): > 256 µg/mL
MIC (Pseudomonas aeruginosa [10]): > 256 µg/mL
MIC [11]: 8 µg/mL (≈ 10.1 µM)
MIC [12]: 16 µg/mL (≈ 20.2 µM)
MIC [13]: 16 µg/mL (≈ 20.2 µM)
MIC [14]: 8 µg/mL (≈ 10.1 µM)
MIC [15]: 16 µg/mL (≈ 20.2 µM)
MIC [16]: 32 µg/mL (≈ 40.4 µM)
MIC [17]: 16 µg/mL (≈ 20.2 µM)
MIC [18]: 16 µg/mL (≈ 20.2 µM)
GI50 (Trypanosoma brucei): 0.0047 µM
MIC (Trypanosoma brucei): 0.1 µM (≈ 0.0792 µg/mL)
GI50 at 24 h [19]: 3.51 µM
MIC (HL-60): 10 µM (≈ 7.92 µg/mL)
selectivity ratio [20]: 100
selectivity ratio [21]: 746

CO[C@H]([C@H](C)[C@H]1O[C@@]2(CC[C@@](C)([C@H]3CC[C@@](CO)([C@@H]4O[C@@H]([C@H]5O[C@@](O)(COC(=O)Nc6ccccc6)[C@H](C)C[C@@H]5C)C[C@@H]4C)O3)O2)C[C@H](O)[C@H]1C)[C@H](C)C(=O)O
MIC (Staphylococcus aureus [1]): 0.25 µg/mL (≈ 0.316 µM)
MIC (Staphylococcus aureus [2]): 0.25 µg/mL (≈ 0.316 µM)
MIC (Staphylococcus aureus [3]): 0.25 µg/mL (≈ 0.316 µM)
MIC (Staphylococcus aureus [4]): 0.25 µg/mL (≈ 0.316 µM)
MIC [5]: 0.25 µg/mL (≈ 0.316 µM)
MIC [6]: 0.5 µg/mL (≈ 0.631 µM)
MIC (Escherichia coli [7]): > 256 µg/mL
MIC (Escherichia coli [8]): > 256 µg/mL
MIC (Pseudomonas aeruginosa [9]): > 256 µg/mL
MIC (Pseudomonas aeruginosa [10]): > 256 µg/mL
MIC [11]: 0.25 µg/mL (≈ 0.316 µM)
MIC [12]: 0.25 µg/mL (≈ 0.316 µM)
MIC [13]: 0.25 µg/mL (≈ 0.316 µM)
MIC [14]: 0.5 µg/mL (≈ 0.631 µM)
MIC [15]: 0.5 µg/mL (≈ 0.631 µM)
MIC [16]: 0.5 µg/mL (≈ 0.631 µM)
MIC [17]: 0.5 µg/mL (≈ 0.631 µM)
MIC [18]: 0.5 µg/mL (≈ 0.631 µM)
Ratio [22]: <=256
Ratio [23]: <=256
Ratio [24]: <=256
GI50 (Trypanosoma brucei): 0.27 µM
MIC (Trypanosoma brucei): 1 µM (≈ 0.792 µg/mL)
GI50 at 24 h [19]: 8.94 µM
MIC (HL-60): 100 µM (≈ 79.2 µg/mL)
selectivity ratio [20]: 100
selectivity ratio [21]: 33.1

CO[C@H]([C@H](C)[C@H]1O[C@@]2(CC[C@@](C)([C@H]3CC[C@@](CO)([C@@H]4O[C@@H]([C@H]5O[C@@](O)(COC(=O)NCc6ccccc6)[C@H](C)C[C@@H]5C)C[C@@H]4C)O3)O2)C[C@H](O)[C@H]1C)[C@H](C)C(=O)O
MIC (Staphylococcus aureus [1]): 1 µg/mL (≈ 1.24 µM)
MIC (Staphylococcus aureus [2]): 1 µg/mL (≈ 1.24 µM)
MIC (Staphylococcus aureus [3]): 1 µg/mL (≈ 1.24 µM)
MIC (Staphylococcus aureus [4]): 2 µg/mL (≈ 2.48 µM)
MIC [5]: 1 µg/mL (≈ 1.24 µM)
MIC [6]: 2 µg/mL (≈ 2.48 µM)
MIC (Escherichia coli [7]): > 256 µg/mL
MIC (Escherichia coli [8]): > 256 µg/mL
MIC (Pseudomonas aeruginosa [9]): > 256 µg/mL
MIC (Pseudomonas aeruginosa [10]): > 256 µg/mL
MIC [11]: 1 µg/mL (≈ 1.24 µM)
MIC [12]: 2 µg/mL (≈ 2.48 µM)
MIC [13]: 2 µg/mL (≈ 2.48 µM)
MIC [14]: 2 µg/mL (≈ 2.48 µM)
MIC [15]: 2 µg/mL (≈ 2.48 µM)
MIC [16]: 2 µg/mL (≈ 2.48 µM)
MIC [17]: 2 µg/mL (≈ 2.48 µM)
MIC [18]: 2 µg/mL (≈ 2.48 µM)
GI50 (Trypanosoma brucei): 0.31 µM
MIC (Trypanosoma brucei): 1 µM (≈ 0.806 µg/mL)
GI50 at 24 h [19]: 19.5 µM
MIC (HL-60): 100 µM (≈ 80.6 µg/mL)
selectivity ratio [20]: 100
selectivity ratio [21]: 62.9

CO[C@H]([C@H](C)[C@H]1O[C@@]2(CC[C@@](C)([C@H]3CC[C@@](CO)([C@@H]4O[C@@H]([C@H]5O[C@@](O)(COC(=O)c6ccccc6)[C@H](C)C[C@@H]5C)C[C@@H]4C)O3)O2)C[C@H](O)[C@H]1C)[C@H](C)C(=O)O
MIC (Staphylococcus aureus [1]): 1 µg/mL (≈ 1.29 µM)
MIC (Staphylococcus aureus [2]): 1 µg/mL (≈ 1.29 µM)
MIC (Staphylococcus aureus [3]): 1 µg/mL (≈ 1.29 µM)
MIC (Staphylococcus aureus [4]): 1 µg/mL (≈ 1.29 µM)
MIC [5]: 1 µg/mL (≈ 1.29 µM)
MIC [6]: 1 µg/mL (≈ 1.29 µM)
MIC (Escherichia coli [7]): > 256 µg/mL
MIC (Escherichia coli [8]): > 256 µg/mL
MIC (Pseudomonas aeruginosa [9]): > 256 µg/mL
MIC (Pseudomonas aeruginosa [10]): > 256 µg/mL
MIC [11]: 0.5 µg/mL (≈ 0.644 µM)
MIC [12]: 2 µg/mL (≈ 2.57 µM)
MIC [13]: 1 µg/mL (≈ 1.29 µM)
MIC [14]: 1 µg/mL (≈ 1.29 µM)
MIC [15]: 2 µg/mL (≈ 2.57 µM)
MIC [16]: 2 µg/mL (≈ 2.57 µM)
MIC [17]: 2 µg/mL (≈ 2.57 µM)
MIC [18]: 1 µg/mL (≈ 1.29 µM)
GI50 (Trypanosoma brucei): 2.62 µM
MIC (Trypanosoma brucei): 10 µM (≈ 7.77 µg/mL)
GI50 at 24 h [19]: 18.3 µM
MIC (HL-60): 100 µM (≈ 77.7 µg/mL)
selectivity ratio [20]: 10
selectivity ratio [21]: 7

CCCCCCCCCC(=O)OC[C@]1(O)O[C@H]([C@H]2C[C@H](C)[C@H]([C@]3(CO)CC[C@H]([C@]4(C)CC[C@]5(C[C@H](O)[C@@H](C)[C@@H]([C@@H](C)[C@@H](OC)[C@H](C)C(=O)O)O5)O4)O3)O2)[C@@H](C)C[C@H]1C
MIC (Staphylococcus aureus [1]): 2 µg/mL (≈ 2.42 µM)
MIC (Staphylococcus aureus [2]): 1 µg/mL (≈ 1.21 µM)
MIC (Staphylococcus aureus [3]): 2 µg/mL (≈ 2.42 µM)
MIC (Staphylococcus aureus [4]): 2 µg/mL (≈ 2.42 µM)
MIC [5]: 2 µg/mL (≈ 2.42 µM)
MIC [6]: 2 µg/mL (≈ 2.42 µM)
MIC (Escherichia coli [7]): > 256 µg/mL
MIC (Escherichia coli [8]): > 256 µg/mL
MIC (Pseudomonas aeruginosa [9]): > 256 µg/mL
MIC (Pseudomonas aeruginosa [10]): > 256 µg/mL
MIC [11]: 1 µg/mL (≈ 1.21 µM)
MIC [12]: 2 µg/mL (≈ 2.42 µM)
MIC [13]: 2 µg/mL (≈ 2.42 µM)
MIC [14]: 2 µg/mL (≈ 2.42 µM)
MIC [15]: 2 µg/mL (≈ 2.42 µM)
MIC [16]: 2 µg/mL (≈ 2.42 µM)
MIC [17]: 2 µg/mL (≈ 2.42 µM)
MIC [18]: 2 µg/mL (≈ 2.42 µM)
GI50 (Trypanosoma brucei): 0.038 µM
MIC (Trypanosoma brucei): 1 µM (≈ 0.827 µg/mL)
GI50 at 24 h [19]: 10 µM
MIC (HL-60): 100 µM (≈ 82.7 µg/mL)
selectivity ratio [20]: 100
selectivity ratio [21]: 263
